From patent US10654866B2, “Selective estrogen receptor degraders” (Eli Lilly and Company, priority 2018, dated 2020)

Experiments:
[1] = target: Y537N mutant ERα receptor (Homo sapiens, UniProt P03372, Y537N); test: PRα inhibition (ERα functional antagonism) cell assay in MCF7-ESR1 Y537N 682 CRISPR cells; format: cell-based; settings: MCF7 Y537N 682 CRISPR cells, 72 hours, % PR positive cells; read-out: Relative IC50
Method: An antagonist in this assay is expected to block the function of the ERα receptor.
Incubate the cells overnight in a cell culture incubator (5% CO2, 95% relative humidity and 37° C.) and allow the cells to attach to the plate. The following day dose the cells with the test compound. Use an Echo 555 acoustic dispenser to prepare compound serial dilutions (1:3) in a range from 6 μM to 0.0003 μM. Dose the cells with the addition of 5 μL from the serial dilution plate to the cell plate producing a final DMSO concentration of 0.2% with a final test compound concentration dose range between 2 and 0.0001 μM. For the maximum point use media containing 0.2% of DMSO and for the minimum point, use fulvestrant diluted at 2 μM final concentrations in the growth media containing 0.2% DMSO. After dosing with test compound, incubate the cell plates at 37° C. and 5% CO2 for 72 hours. Fix the cells by adding 14% para-formaldehyde (10 μL) for 30 minutes at room temperature. Wash the cells with PBS (1×20 μL) and incubate with PBS (20 μL) of containing 0.5% (v/v) TWEEN® 20 for 1 hour. Wash the cells with PBS (2×20 μL) 0.05% TWEEN® 20, and block with 3% BSA/PBS 0.05% TWEEN® 20, 0.1% TRITON™ X-100 (20 μL/well) for 1 hour at room temperature. Add 1:500 primary antibody (20 μL) (PR monoclonal mouse anti-human antibody, clone PgR 636 Dako, M3569) dilution in 1% BSA/PBS 0.05 TWEEN® 20 per well, seal the plates and incubate overnight at 4° C.
The following day, wash the cells with PBS […] (2×20 μL) and incubate with secondary antibody (20 μL/well) (1:1000 dilution, Goat anti-rabbit IgM ALEXA FLUOR™ 488) in PBS 1% BSA for 105 minutes at room temperature. […] Seal the plates and incubate 1 hour at room temperature on the bench (preserved from light). Scan the plates with ACUMEN EXPLORER™ [Laser-scanning fluorescence microplate cytometer manufactured by TTP LABTECH LTD] to measure PRα. Image analysis is based on cellular fluorescent signals for identifying positive cells. Identify PR positive cells by mean intensity. Use total intensity at 575-640 nm from propidium iodide/DNA to identify individual cells. Assay output is % PR positive cells. Determine the IC50 by curve fitting to a four parameter logistic for each output using GENE DATA™.

[2] = target: ERα (Y537S mutant) (Homo sapiens (Human), UniProt P03372, Y537S); test: ERα (Y537S mutant) competition binding assay; settings: 3H-estradiol competition; Ki from IC50 by Cheng-Prusoff
ERα (Y537S mutant), sequence (P03372 whole entry Y537S): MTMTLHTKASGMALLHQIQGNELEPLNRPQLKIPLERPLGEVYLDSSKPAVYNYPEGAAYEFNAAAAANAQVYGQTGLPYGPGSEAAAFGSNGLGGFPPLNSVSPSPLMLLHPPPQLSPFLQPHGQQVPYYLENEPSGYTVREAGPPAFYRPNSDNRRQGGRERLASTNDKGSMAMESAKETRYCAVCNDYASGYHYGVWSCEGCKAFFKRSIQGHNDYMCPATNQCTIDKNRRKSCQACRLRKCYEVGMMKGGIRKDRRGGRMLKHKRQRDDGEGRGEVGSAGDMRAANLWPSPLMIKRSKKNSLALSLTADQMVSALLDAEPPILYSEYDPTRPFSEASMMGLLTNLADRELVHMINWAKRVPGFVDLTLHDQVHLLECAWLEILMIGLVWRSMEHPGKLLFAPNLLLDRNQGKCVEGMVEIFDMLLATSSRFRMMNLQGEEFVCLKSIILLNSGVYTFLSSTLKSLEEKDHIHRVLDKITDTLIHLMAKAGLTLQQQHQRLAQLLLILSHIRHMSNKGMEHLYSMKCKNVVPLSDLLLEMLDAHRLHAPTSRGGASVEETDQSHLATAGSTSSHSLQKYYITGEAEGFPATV
Method: (§1) Add the test compound at 10 different concentrations ranging from 10,000 nM to 0.5 nM, and determine nonspecific binding in the presence of 1 μM of 1713 estradiol. Incubate the binding reaction (140 μL) for 4 hours at room temperature, and then add cold dextran-charcoal buffer (70 μL) (containing per 50 mL of assay buffer, 0.75 g of charcoal and 0.25 g of dextran) to each reaction. Mix the plates for 8 minutes on an orbital shaker at 4° C. and then centrifuge at 3000 rpm at 4° C. for 10 minutes. Transfer an aliquot (120 μL) of the mixture to another 96-well, white flat bottom plate (Costar) and add Perkin Elmer Optiphase Supermix scintillation fluid (175 μL) to each well. Seal the plates and shake vigorously on an orbital shaker. After an incubation of 2.5 hours, read the plates in a Wallac Microbeta counter. […] Convert the IC50 values for the compound to Ki using Cheng-Prusoff equation.

[3] = target: T1, ERα (Homo sapiens (Human), UniProt P03372); test: ERα degradation assay in MCF7 cells; format: cell-based; settings: 24 hours, % ER positive cells, read-out: Relative IC50
T1 sequence (P03372 whole entry): as the sequence (P03372 whole entry Y537S) above, with S537Y counted along it
Method: The purpose of the following ERα degradation assay is to measure the degradation of ERα by a test compound in an ERα positive breast cancer cell line such as MCF7.
Culture MCF7 (purchased from ATCC HTB-22) cells in DMEM media supplemented with 10% FBS, 0.01 mg/mL human insulin 1 and 1% penicillin/streptomycin antibiotics and plate in 384-well flat-bottom plates at a density of 4,000 cells per well in phenol red free DMEM media (20 μL) containing 10% charcoal stripped FBS. Incubate the cells overnight in a cell culture incubator (5% CO2, 95% relative humidity and 37° C.) and allow the cells to attach to the plate. The following day dose the cells with the test compound. Use an Echo 555 acoustic dispenser to prepare test compound serial dilutions (1:3) in a range from 6 μM to 0.0003 μM. Dose the cells with the addition of 5 μL from the serial dilution plate to the cell plate producing a final DMSO concentration of 0.2% with a final test compound concentration dose range between 2 and 0.0001 μM. For the maximum point, use media containing 0.2% of DMSO and for the minimum point, use fulvestrant diluted at 2 μM final concentrations in the growth media containing 0.2% DMSO. After dosing with the test compound, incubate the cell plates at 37° C. and 5% CO2 for 24 hours. Fix the cells by adding 14% para-formaldehyde (10 μL) for 30 minutes at room temperature. Wash the cells once with PBS (20 μL) and incubate with PBS (20 μL) containing 0.5% (v/v) TWEEN® 20 for 1 hour. Wash the cells with PBS containing 0.05% TWEEN® 20 (2×) and block with 3% BSA in PBS containing 0.05% TWEEN® 20 and 0.1% TRITON™ X-100 (20 μL/well) for 1 hour at room temperature. Add 1:500 Primary antibody (20 μL) (ERα (Clone SP1) monoclonal rabbit antibody # RM-9101-S, Thermo Scientific) dilution in 1% BSA in PBS containing 0.05% TWEEN® 20 per well, seal the plates and incubate overnight at 4° C. The following day wash the cells with PBS containing 0.05% TWEEN® 20 (2×) and incubate with secondary antibody (20 μL/well) (1:1000 dilution, Goat anti-rabbit IgM ALEXA FLUOR™ 488) in PBS 1% BSA for 105 minutes at room temperature. […] Seal the plates and incubate 1 hour at room temperature on the bench (preserved from light). Scan the plates with ACUMEN EXPLORER™ [Laser-scanning fluorescence microplate cytometer manufactured by TTP LABTECH LTD] to measure ERα. Image analysis is based on cellular fluorescent signals for identifying positive cells. Identify ER positive cells by mean intensity. Use total intensity at 575-640 nm from propidium iodide/DNA to identify individual cells. Assay output is % ER positive cells. Determine the IC50 by curve fitting to a four parameter logistic for each output using GENE DATA™.

[4] = target: ERα (wild type) (Homo sapiens (Human), UniProt P03372); test: ERα (wild type) competition binding assay; settings: 3H-estradiol competition; Ki from IC50 by Cheng-Prusoff
ERα (wild type), sequence (P03372 whole entry): as the sequence (P03372 whole entry Y537S) above, with S537Y counted along it
Method: as §1

[5] = target: T1, ERα; test: PRα inhibition (ERα functional antagonism) cell assay in MCF7 cells; format: cell-based; settings: MCF7 cells pretreated with 0.47 nM estradiol, % PRα positive cells; read-out: Relative IC50
Excerpt: The purpose of the following PRα inhibition (ERα functional antagonism) cell assay is to determine the antagonistic activity of a test compound against the ERα receptor. An antagonist in this assay is expected to block the function of the ERα receptor.
Carry out the assay conditions as detailed in the ERα degradation Cell base Acumen assay above, using the MCF7 cell line except that, prior to test compound dispensing, remove the media from the cell plate and pretreat all wells except for the negative control wells (column 24 of the plate) with assay media containing 0.47 nM estradiol for 30 minutes. In this assay, carry out immunostaining for the detection of PRα and scan the plates with ACUMEN EXPLORER™ [Laser-scanning fluorescence microplate cytometer manufactured by TTP LABTECH LTD] to measure PRα. Image analysis is based on cellular fluorescent signals for identifying positive cells. Identify PRα positive cells by mean intensity. Use total intensity at 575-640 from propidium iodide/DNA to identify individual cells. Assay output is % PRα positive cells. Determine the IC50 by curve fitting to a four parameter logistic for each output using GENE DATA™.

[6] = test system: MCF7 ER-positive breast cancer model; test: In vivo combination studies in MCF7 ER-positive breast cancer xenograft model; design: species or system mice; settings: for Difference (Treatment 1 − Treatment 2): Treatment 1 = Vehicle, log10 tumor volume
Excerpt: Otherwise, the statistical conclusion is additive.

Structure (SMILES) | IC50 [1] [nM] | Ki [2] [nM] | DC50 [3] [nM] | Ki [4] [nM] | also measured
Oc1ccc2c3c(cnc2c1)-c1ccc(Cl)cc1OC3c1ccc(OCCN2CC(CF)C2)cc1 (racemic) [Example 3, 8-chloro-5-(4-{2-[3-(fluoromethyl)azetidin-1-yl]ethoxy}phenyl)-5H-[1]benzopyrano[4,3-c]quinolin-2-ol] | 77.2 ± 11.5 | 6.69 | 33.5 ± 7.83 | 2.36 | 
Oc1ccc2c3c(cnc2c1)-c1ccc(Cl)cc1OC3c1ccc(OCCN2CC(CF)C2)cc1 (single isomer, unassigned) [Example 3A, 8-Chloro-5-(4-{2-[3-(fluoromethyl)azetidin-1-yl]ethoxy}phenyl)-5H-[1]benzopyrano[4,3-c]quinolin-2-ol] | 612 | 27.2 | 390 | 8.11 | IC50 [5]: 927 nM
Oc1ccc2c3c(cnc2c1)-c1ccc(Cl)cc1OC3c1ccc(OCCN2CC(CF)C2)cc1 (single isomer, unassigned) [Example 3B, 8-Chloro-5-(4-{2-[3-(fluoromethyl)azetidin-1-yl]ethoxy}phenyl)-5H-[1]benzopyrano[4,3-c]quinolin-2-ol] | 16 | 2.79 | 8.66 | 0.59 | IC50 [5]: 34.4 nM
CCN1CCN(Cc2ccc(Nc3ncc(F)c(-c4cc(F)c5nc(C)n(C(C)C)c5c4)n3)nc2)CC1 [Abemaciclib, abemaciclib, reference compound] |  |  |  |  | Delta T/C % or % Regression ([6]; Example 1B 10 mpk, Abemaciclib 50 mpk, QD × 42, PO (Table 16)): −52%; Delta T/C % or % Regression ([6]; Example 10 15 mpk, Abemaciclib 50 mpk, QD × 42, PO (Table 20)): −70%; Difference (Treatment 1 − Treatment 2) ([6]; Example 1B 10 mpk, Abemaciclib 50 mpk, QD × 42, PO): 0.479; Difference (Treatment 1 − Treatment 2) ([6]; Example 10 15 mpk, Abemaciclib 50 mpk, QD × 42, PO): 0.445
CO[C@@H](C)Cn1c(=O)n(C)c2cnc3ccc(-c4cncc(C(C)(C)O)c4)cc3c21 [Compound A, 8-[5-(1-hydroxy-1-methylethyl)pyridin-3-yl]-1-[(2 S)-2-methoxypropyl]-3-methyl-1,3-dihydro-2H-imidazo[4,5-c]quinolin-2-one, reference compound] |  |  |  |  | Delta T/C % or % Regression ([6]; Example 1B 10 mpk QD × 42, Compound A 7.5 mpk BID × 42, PO (Table 18)): −36%; Difference (Treatment 1 − Treatment 2) ([6]; Example 1B 10 mpk QD × 42, Compound A 7.5 mpk BID × 42, PO): 0.504
CO[C@H]1C[C@@H]2CC[C@@H](C)[C@@](O)(O2)C(=O)C(=O)N2CCCC[C@H]2C(=O)O[C@H]([C@H](C)C[C@@H]2CC[C@@H](OCCO)[C@H](OC)C2)CC(=O)[C@H](C)/C=C(\C)[C@@H](O)[C@@H](OC)C(=O)[C@H](C)C[C@H](C)/C=C/C=C/C=C/1C [Everolimus, everolimus, reference compound] |  |  |  |  | Delta T/C % or % Regression ([6]; Example 10 15 mpk, Everolimus 5 mpk, QD × 42, PO (Table 24)): −50%; Difference (Treatment 1 − Treatment 2) ([6]; Example 10 15 mpk, Everolimus 5 mpk, QD × 42, PO): 0.433
Cc1nc(NC(=O)N2CCC[C@H]2C(N)=O)sc1-c1ccnc(C(C)(C)C(F)(F)F)c1 [alpelisib, reference compound] |  |  |  |  | Delta T/C % or % Regression ([6]; Example 10 15 mpk, alpelisib 15 mpk (d1-d7), 10 mpk (d8-42), QD × 42, PO (Table 22)): −21%; Difference (Treatment 1 − Treatment 2) ([6]; Example 10 15 mpk, alpelisib 15 mpk (d1-d7), 10 mpk (d8-42), QD × 42, PO): 0.445
